# From US11567085B2, “Photo-cleavable surfactants” (Wisconsin Alumni Research Foundation, priority 2018, dated 2023)
# What was measured:
# cardiac tissue proteins = assay: Surfactant-aided protein extraction from insoluble cardiac tissue pellet, SDS-PAGE and protein assay; conditions: 0.5% surfactant in 25 mM NH4HCO3; SDS-PAGE and Bradford protein assay (FIG. 16)
# Description: Data presented were based on three independent experiments (n=3). Error bars represent standard error of the mean.
# Protein extraction from cardiac tissue. The frozen tissue samples (˜500 mg) were cut into small pieces and washed with PBS buffer containing protease inhibitors and reducing agent (5 mM DTT, 1 mM PMSF, 1× protease inhibitor cocktail). […] The homogenate was centrifuged at 211,750×g using Beckman Ultracentrifuge and a Ti-80 rotor for 1 h. The supernatant after the first HEPES extraction was removed and saved as “E1” extraction. The HEPES extraction was repeated on the resulting pellet and saved as “E2”. After the second HEPES extraction, the tissue pellet was suspended in 25 mM NH4HCO3 and evenly divided into smaller aliquots. In one aliquot, 25 mM NH4HCO3 buffer with no surfactant (NS) was used in a 1:1 ratio (homogenate:buffer) and labeled as “E3”. In the other aliquots, surfactants (1% in 25 mM NH4HCO3) were individually added to the other aliquots in a 1:1 ratio (homogenate:surfactant) and labeled as “E3” following incubation and centrifugation.
# [1] = format: physicochemical
# Description: Several degradation conditions were compared (i.e., organic vs. aqueous solutions in the presence or absence of acid and reducing agents) to determine the most favorable conditions (FIG. 11).
# UV-Vis degradation. […] The samples were diluted to a final volume of 1 mL in H2O. A UV-Vis spectrum was taken from each sample with a Varian Cary 50 UV-Visible spectrophotometer (background correction, medium scan rate, 600-200 nm).
degradation time upon UV irradiation [1],Compound,protein solubilization ability (cardiac tissue proteins)
,CCCCCCCCCCCC1(C)OCC(COCCCS(=O)(=O)[O-])O1.[Na+] (stereo not drawn) [RG],drastically better protein solubilization ability
,CCCCCCCCCCC(OC(=O)NCCCS(=O)(=O)[O-])c1ccco1.[Na+] (stereo not drawn) [PM],drastically better protein solubilization ability
30 to 150 s,4-hexylphenylazosulfonate,
